Experimental data published in ChEMBL document CHEMBL2413016, “Synthesis and in vivo evaluation of [(18)F]2-(4-(4-(2-(2-fluoroethoxy)phenyl)piperazin-1-yl)butyl)-4-methyl-1,2,4-triazine-3,5(2H,4H)-dione ([(18)F]FECUMI-101) as an imaging probe for 5-HT1A receptor agonist in nonhuman primates” (Bioorg Med Chem, 2013).

Assays:
[1] = biological target: Alpha-2C adrenergic receptor (Homo sapiens, UniProt P18825); test: Binding affinity to adrenergic alpha2C receptor (unknown origin)
[2] = biological target: Alpha-1B adrenergic receptor (Homo sapiens, UniProt P35368); test: Binding affinity to adrenergic alpha1B receptor (unknown origin)
Sequence of Alpha-1B adrenergic receptor (P35368 whole entry): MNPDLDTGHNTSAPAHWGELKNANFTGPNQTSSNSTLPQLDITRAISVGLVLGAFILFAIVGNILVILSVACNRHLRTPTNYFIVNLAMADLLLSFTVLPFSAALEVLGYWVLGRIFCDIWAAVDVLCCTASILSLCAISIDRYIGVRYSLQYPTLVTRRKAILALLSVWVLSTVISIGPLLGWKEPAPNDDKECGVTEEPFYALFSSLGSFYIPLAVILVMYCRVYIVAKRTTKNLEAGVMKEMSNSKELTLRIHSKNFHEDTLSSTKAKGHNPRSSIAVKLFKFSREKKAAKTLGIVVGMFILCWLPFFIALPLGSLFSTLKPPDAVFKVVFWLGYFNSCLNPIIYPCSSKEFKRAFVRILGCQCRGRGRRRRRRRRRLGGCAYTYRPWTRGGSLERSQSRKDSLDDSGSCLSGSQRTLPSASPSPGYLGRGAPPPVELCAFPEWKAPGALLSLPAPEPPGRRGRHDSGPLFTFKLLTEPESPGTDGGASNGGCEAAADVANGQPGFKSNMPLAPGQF

[3] = biological target: 5-hydroxytryptamine receptor 1A (Homo sapiens) (UniProt P08908); test: Partial agonist activity at human 5HT1A receptor expressed in CHO cells assessed as increase in [35S]GTPgammaS binding relative to serotonin; assay type: functional, cell-based
D(4) dopamine receptor = D(4) dopamine receptor (Homo sapiens, UniProt P21917); test: Binding affinity to dopamine 4 receptor (unknown origin)
Sequence of D(4) dopamine receptor (P21917 whole entry): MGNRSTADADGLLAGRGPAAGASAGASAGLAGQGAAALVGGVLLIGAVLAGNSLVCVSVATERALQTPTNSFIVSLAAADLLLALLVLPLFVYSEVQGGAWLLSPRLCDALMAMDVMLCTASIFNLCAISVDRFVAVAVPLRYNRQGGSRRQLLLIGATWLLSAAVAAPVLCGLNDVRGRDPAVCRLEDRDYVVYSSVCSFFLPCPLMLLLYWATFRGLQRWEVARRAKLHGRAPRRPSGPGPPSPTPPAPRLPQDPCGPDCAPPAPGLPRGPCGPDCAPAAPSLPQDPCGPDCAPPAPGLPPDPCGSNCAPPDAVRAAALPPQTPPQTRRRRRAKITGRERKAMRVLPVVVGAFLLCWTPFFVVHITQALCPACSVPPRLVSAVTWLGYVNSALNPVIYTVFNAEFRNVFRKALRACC

[4] = biological target: Alpha-1D adrenergic receptor (Homo sapiens, UniProt P25100); test: Binding affinity to adrenergic alpha1D receptor (unknown origin)
Sequence of Alpha-1D adrenergic receptor (P25100 whole entry): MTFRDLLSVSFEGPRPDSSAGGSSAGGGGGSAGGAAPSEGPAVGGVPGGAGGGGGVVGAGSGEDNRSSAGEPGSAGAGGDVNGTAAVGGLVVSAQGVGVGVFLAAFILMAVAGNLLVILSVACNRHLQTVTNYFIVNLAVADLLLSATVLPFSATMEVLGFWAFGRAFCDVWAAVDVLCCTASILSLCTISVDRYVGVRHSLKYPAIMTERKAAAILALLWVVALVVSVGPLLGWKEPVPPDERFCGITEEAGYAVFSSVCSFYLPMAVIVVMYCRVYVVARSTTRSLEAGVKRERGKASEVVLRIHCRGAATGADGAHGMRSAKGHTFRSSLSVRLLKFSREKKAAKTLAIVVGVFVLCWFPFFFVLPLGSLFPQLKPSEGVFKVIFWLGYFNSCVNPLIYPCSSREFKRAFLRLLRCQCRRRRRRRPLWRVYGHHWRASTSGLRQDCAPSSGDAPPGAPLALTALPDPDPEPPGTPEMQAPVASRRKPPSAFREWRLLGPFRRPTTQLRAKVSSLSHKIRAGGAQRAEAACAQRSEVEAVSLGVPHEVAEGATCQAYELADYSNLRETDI

[5] = Binding affinity to sigma 2 receptor (unknown origin); design: species or system Homo sapiens
[6] = biological target: Alpha-2B adrenergic receptor (Homo sapiens, UniProt P18089); test: Binding affinity to adrenergic alpha2B receptor (unknown origin)
[7] = biological target: 5-hydroxytryptamine receptor 1B (Homo sapiens, UniProt P28222); test: Binding affinity to 5HT1B receptor (unknown origin)
Sequence of 5-hydroxytryptamine receptor 1B (P28222 whole entry): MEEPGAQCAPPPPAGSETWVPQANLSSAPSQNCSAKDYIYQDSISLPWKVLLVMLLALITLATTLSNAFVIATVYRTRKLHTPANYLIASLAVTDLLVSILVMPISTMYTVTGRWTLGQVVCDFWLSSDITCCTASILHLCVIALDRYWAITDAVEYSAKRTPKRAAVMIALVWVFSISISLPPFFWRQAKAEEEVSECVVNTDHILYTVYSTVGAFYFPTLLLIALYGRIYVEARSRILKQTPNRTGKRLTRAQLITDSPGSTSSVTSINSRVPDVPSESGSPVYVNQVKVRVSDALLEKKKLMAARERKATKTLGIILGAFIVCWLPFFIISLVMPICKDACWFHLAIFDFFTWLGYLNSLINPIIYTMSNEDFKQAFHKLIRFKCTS

D(3) dopamine receptor = D(3) dopamine receptor (Homo sapiens, UniProt P35462); test: Binding affinity to dopamine 3 receptor (unknown origin)
D(1A) dopamine receptor = D(1A) dopamine receptor (Homo sapiens, UniProt P21728); test: Binding affinity to dopamine 1 receptor (unknown origin)
[8] = biological target: 5-hydroxytryptamine receptor 5A (Homo sapiens, UniProt P47898); test: Binding affinity to 5HT5A receptor (unknown origin)
Sequence of 5-hydroxytryptamine receptor 5A (P47898 whole entry): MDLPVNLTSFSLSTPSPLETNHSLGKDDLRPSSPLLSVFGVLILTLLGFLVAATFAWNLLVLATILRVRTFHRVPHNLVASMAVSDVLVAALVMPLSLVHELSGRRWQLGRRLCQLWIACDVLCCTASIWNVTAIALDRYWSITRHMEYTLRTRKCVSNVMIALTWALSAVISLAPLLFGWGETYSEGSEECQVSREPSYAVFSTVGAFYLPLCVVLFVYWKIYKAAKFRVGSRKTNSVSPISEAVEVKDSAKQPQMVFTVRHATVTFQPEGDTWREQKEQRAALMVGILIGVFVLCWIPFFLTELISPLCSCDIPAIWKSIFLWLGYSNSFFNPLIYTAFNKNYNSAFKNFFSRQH

D(2) dopamine receptor = D(2) dopamine receptor (Homo sapiens, UniProt P14416); test: Binding affinity to dopamine 2 receptor (unknown origin)
Histamine H1 receptor = Histamine H1 receptor (Homo sapiens, UniProt P35367); test: Binding affinity to histamine H1 receptor (unknown origin)
Sequence of Histamine H1 receptor (P35367 whole entry): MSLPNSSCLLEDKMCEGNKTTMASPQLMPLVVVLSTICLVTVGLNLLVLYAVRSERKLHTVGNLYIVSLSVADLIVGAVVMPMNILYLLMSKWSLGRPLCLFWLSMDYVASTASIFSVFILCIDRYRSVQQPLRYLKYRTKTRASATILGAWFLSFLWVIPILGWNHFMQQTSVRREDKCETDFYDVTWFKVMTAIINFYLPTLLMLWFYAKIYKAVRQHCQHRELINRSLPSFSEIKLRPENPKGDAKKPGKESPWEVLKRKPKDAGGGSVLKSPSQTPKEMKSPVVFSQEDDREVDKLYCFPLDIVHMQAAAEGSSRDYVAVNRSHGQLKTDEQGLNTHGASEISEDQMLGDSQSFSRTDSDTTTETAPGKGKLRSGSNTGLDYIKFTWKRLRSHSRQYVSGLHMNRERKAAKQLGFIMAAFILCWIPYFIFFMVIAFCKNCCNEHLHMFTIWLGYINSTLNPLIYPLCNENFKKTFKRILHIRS

[9] = biological target: 5-hydroxytryptamine receptor 2A (Homo sapiens, UniProt P28223); test: Binding affinity to 5HT2A receptor (unknown origin)
[10] = Binding affinity to benzodiazepine receptor in rat brain; assay type: tissue-based
Histamine H2 receptor = Histamine H2 receptor (Homo sapiens, UniProt P25021); test: Binding affinity to histamine H2 receptor (unknown origin)
Sequence of Histamine H2 receptor (P25021 whole entry): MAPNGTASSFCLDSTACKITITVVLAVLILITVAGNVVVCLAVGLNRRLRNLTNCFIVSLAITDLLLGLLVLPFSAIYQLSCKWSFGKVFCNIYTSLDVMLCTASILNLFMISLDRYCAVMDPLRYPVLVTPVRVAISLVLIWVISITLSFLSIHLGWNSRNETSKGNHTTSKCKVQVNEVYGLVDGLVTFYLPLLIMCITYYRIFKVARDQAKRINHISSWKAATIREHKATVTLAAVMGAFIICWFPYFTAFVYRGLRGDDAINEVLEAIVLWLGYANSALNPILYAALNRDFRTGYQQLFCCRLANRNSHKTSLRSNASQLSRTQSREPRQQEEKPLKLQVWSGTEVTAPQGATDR

[11] = biological target: 5-hydroxytryptamine receptor 7 (Homo sapiens, UniProt P34969); test: Binding affinity to 5HT7 receptor (unknown origin)
[12] = biological target: 5-hydroxytryptamine receptor 2B (Homo sapiens, UniProt P41595); test: Binding affinity to 5HT2B receptor (unknown origin)
[13] = biological target: Alpha-2A adrenergic receptor (Homo sapiens, UniProt P08913); test: Binding affinity to adrenergic alpha2A receptor (unknown origin)
Sequence of Alpha-2A adrenergic receptor (P08913 whole entry): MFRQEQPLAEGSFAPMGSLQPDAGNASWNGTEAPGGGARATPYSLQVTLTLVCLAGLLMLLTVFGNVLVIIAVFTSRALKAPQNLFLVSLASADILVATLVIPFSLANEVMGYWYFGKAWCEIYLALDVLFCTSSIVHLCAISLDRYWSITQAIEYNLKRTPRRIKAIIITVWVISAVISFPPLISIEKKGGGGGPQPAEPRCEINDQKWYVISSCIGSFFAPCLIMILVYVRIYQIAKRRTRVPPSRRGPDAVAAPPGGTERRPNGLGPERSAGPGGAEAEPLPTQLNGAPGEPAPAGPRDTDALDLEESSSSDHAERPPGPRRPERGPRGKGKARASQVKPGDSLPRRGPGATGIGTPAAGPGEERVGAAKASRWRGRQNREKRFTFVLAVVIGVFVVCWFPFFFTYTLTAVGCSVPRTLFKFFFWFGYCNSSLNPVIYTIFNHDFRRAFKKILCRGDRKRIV

[14] = biological target: 5-hydroxytryptamine receptor 1D (Homo sapiens, UniProt P28221); test: Binding affinity to 5HT1D receptor (unknown origin)
Sequence of 5-hydroxytryptamine receptor 1D (P28221 whole entry): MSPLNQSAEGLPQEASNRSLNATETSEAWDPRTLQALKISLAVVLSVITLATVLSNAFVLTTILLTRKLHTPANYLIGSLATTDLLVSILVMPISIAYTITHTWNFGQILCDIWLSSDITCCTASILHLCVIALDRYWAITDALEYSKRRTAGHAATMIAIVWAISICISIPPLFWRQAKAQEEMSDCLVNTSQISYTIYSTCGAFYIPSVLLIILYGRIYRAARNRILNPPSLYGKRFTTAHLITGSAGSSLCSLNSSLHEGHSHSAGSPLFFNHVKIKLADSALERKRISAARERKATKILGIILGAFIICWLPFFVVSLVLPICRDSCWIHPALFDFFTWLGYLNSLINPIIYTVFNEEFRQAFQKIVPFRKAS

[15] = biological target: Sigma non-opioid intracellular receptor 1 (Homo sapiens, UniProt Q99720); test: Binding affinity to sigma 1 receptor (unknown origin)
Sequence of Sigma non-opioid intracellular receptor 1 (Q99720 whole entry): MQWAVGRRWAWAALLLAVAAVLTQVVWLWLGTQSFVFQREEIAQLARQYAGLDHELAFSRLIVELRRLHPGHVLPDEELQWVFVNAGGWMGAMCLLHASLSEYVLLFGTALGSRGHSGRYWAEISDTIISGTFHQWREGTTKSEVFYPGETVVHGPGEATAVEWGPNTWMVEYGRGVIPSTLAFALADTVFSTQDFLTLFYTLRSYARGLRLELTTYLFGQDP

[16] = biological target: T1, 5-hydroxytryptamine receptor 1A (Homo sapiens, UniProt P08908); test: Partial agonist activity at human 5HT1A receptor expressed in CHO cells assessed as increase in [35S]GTPgammaS binding; assay type: functional, cell-based
T1 sequence (P08908 whole entry): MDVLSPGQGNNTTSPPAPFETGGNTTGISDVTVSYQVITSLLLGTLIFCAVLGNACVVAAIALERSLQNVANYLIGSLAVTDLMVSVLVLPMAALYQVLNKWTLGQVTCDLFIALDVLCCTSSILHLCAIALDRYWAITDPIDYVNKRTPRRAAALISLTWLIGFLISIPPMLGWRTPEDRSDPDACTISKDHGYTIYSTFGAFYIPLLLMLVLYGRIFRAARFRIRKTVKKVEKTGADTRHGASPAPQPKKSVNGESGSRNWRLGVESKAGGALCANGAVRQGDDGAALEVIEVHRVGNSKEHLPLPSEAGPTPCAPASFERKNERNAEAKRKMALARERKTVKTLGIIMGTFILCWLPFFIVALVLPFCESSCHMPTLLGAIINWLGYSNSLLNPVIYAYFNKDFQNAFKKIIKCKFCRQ

[17] = biological target: T1, 5-hydroxytryptamine receptor 1A; test: Binding affinity to 5HT1A receptor (unknown origin)
[18] = biological target: Alpha-1A adrenergic receptor (Homo sapiens, UniProt P35348); test: Binding affinity to adrenergic alpha1A receptor (unknown origin)
Sequence of Alpha-1A adrenergic receptor (P35348 whole entry): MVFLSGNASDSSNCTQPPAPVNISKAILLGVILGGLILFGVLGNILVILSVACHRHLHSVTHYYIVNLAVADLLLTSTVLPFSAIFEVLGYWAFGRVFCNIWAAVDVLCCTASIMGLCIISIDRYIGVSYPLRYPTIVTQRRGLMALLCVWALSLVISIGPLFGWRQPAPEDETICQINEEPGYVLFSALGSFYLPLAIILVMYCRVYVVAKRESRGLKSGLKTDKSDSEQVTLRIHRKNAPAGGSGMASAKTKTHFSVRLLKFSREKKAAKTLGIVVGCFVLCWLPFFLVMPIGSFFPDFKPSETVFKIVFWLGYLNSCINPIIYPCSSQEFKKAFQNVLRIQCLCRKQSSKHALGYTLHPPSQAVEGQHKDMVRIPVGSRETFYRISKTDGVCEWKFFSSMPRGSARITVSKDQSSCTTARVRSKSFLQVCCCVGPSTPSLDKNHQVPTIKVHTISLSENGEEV

Row | Compound | Ki [1] [nM] | Ki [2] [nM] | Emax [3] [%] | Ki (D(4) dopamine receptor) [nM] | Ki [4] [nM] | Ki [5] [nM] | Ki [6] [nM] | Ki [7] [nM] | Ki (D(3) dopamine receptor) [nM] | Ki (D(1A) dopamine receptor) [nM] | Ki [8] [nM] | Ki (D(2) dopamine receptor) [nM] | Ki (Histamine H1 receptor) [nM] | Ki [9] [nM] | Ki [10] [nM] | Ki (Histamine H2 receptor) [nM] | Ki [11] [nM] | Ki [12] [nM] | Ki [13] [nM] | Ki [14] [nM] | also measured
1 | COc1ccccc1N1CCN(CCCCn2ncc(=O)n(C)c2=O)CC1 | 15 | > 10000 | 80 | 21 | > 10000 | 123 | 238 | 643 | > 10000 | > 10000 | > 10000 | > 10000 | 1030 | 4980 | > 10000 | 2130 | 12.9 | 73.6 | 96 | 88.3 | Ki [15]: 59 nM; EC50 [16]: 0.1 nM; Ki [17]: 0.15 nM; Ki [18]: 6.75 nM
2 | Cn1c(=O)cnn(CCCCN2CCN(c3ccccc3OCCF)CC2)c1=O | 174 | 26.8 | 77 | 71 | 62.6 | 1730 | 56.2 | 411 | 22 | > 10000 | 2130 | 37.1 | 512 | > 10000 | 6240 | 1770 | 17.2 | 300 | 2750 | 235 | Ki [15]: > 10000 nM; EC50 [16]: 0.65 nM; Ki [17]: 0.1 nM; Ki [18]: 21.4 nM
